Values joined by “and” are separate entries in the source; they are usually repeats but may differ in a detail not shown here. Equal entries are not always repeated. “Also recorded” adds a separate entry of the source.
Tests used:
refractory malignancies = assay: Phase 1/2 study of 9-ING-41 as a single agent or with chemotherapy in pediatric patients with refractory malignancies; format: in vivo, human (pediatric patients); conditions: for OS (overall survival) / Notes (response): intermediate data; for Best Response / Status Last FUP / Survival: unaudited data
[1] = 1801 adult study, tolerated dose level; format: in vivo, human (adult)
[2] = test system: 93T449 liposarcoma cell line; assay: Luminex cytokine profiling; format: cell-based, Human; conditions: 93T449, 0.5 μM 9-ING-41 for 24 hours
Description: (§1) Saos-2 osteosarcoma and 93T449 liposarcoma cell lines were pretreated at IC5072 with small molecule GSK-3 inhibitor 9-ING-41 (elraglusib). The cells were harvested for western blot analysis after 48 hours of treatment. Additionally, both cancer cell lines as well as TALL-104 T-cells and NK-92 NK cells were treated with 0.5 μM 9-ING-41 for 24 hours and harvested for Luminex cytokine profiling. […] Additionally, an increase in PD-L1 expression was observed. […] Follow-up cytokine profiling is in progress. […] The potential synergistic effect of these two therapies is currently under investigation with co-culture experiments of sarcoma and immune cells. The treatment cohorts for these experiments include 9-ING-41 combined with either anti-PD-L1, anti-PD-1, or anti-CTLA-4 immune checkpoint inhibitors.

[3] = test system: Saos-2 osteosarcoma cell line; assay: Luminex cytokine profiling; format: cell-based, Human
Description: as §1

[4] = Human pharmacokinetics of 9-ING-41 from study NCT03678883; conditions: in vivo, intravenous, dose 9.3 mg/kg (current dose)
Description: Example 1. Human Pharmacokinetics of 9-ING-41 from Study

[5] = test system: 93T449 liposarcoma cell line; assay: Western blot analysis after 9-ING-41 treatment; format: cell-based, Human; conditions: 93T449, pretreated at IC5072, harvested after 48 hours
Description: as §1

[6] = test system: Saos-2 osteosarcoma cell line; assay: Western blot analysis after 9-ING-41 treatment; format: cell-based, Human; conditions: Saos-2, pretreated at IC5072, harvested after 48 hours
Description: as §1

NK-92 NK cells = assay: Luminex cytokine profiling; format: cell-based; conditions: NK-92 cells, 0.5 μM 9-ING-41 for 24 hours
Description: as §1

TALL-104 T-cells = assay: Luminex cytokine profiling; format: cell-based; conditions: 0.5 μM 9-ING-41 for 24 hours
Description: as §1

[7] = CIC rearranged sarcoma patient, elraglusib 15 mg/kg + Cyclophosphamide/topotecan
[8] = Ependymoma patient, elraglusib 9.3 mg/kg + Cyclophosphamide/topotecan
[9] = Ependymoma patient, elraglusib 12.4 mg/kg, chemotherapy backbone N/A
[10] = Ependymoma patient, elraglusib 15 mg/kg + Irinotecan
[11] = Ewing sarcoma patient, 9-ING-41 9.3 mg/kg + Cyclophosphamide/topotecan
[12] = Ewing sarcoma patient, elraglusib 9.3 mg/kg + Cyclophosphamide/topotecan
[13] = Ewing sarcoma patient, elraglusib 12.4 mg/kg + Cyclophosphamide/topotecan
[14] = Ewing sarcoma patient, elraglusib 15 mg/kg + Cyclophosphamide/topotecan
[15] = Glioblastoma multiforme (GBM) patient, elraglusib 12.4 mg/kg + Cyclophosphamide/topotecan
[16] = Neuroblastoma patient, 9-ING-41 12.4 mg/kg + Cyclophosphamide/topotecan
[17] = Neuroblastoma patient, elraglusib 9.3 mg/kg + Irinotecan
[18] = Neuroblastoma patient, elraglusib 12.4 mg/kg + Cyclophosphamide/topotecan
[19] = Neuroblastoma patient, elraglusib 12.4 mg/kg + Irinotecan
[20] = Neuroblastoma patient, elraglusib 15 mg/kg + Cyclophosphamide/topotecan
[21] = Osteosarcoma patient, elraglusib 9.3 mg/kg + Cyclophosphamide/topotecan
[22] = Rhabdomyosarcoma patient, elraglusib 9.3 mg/kg + Irinotecan
[23] = seven metastatic, refractory Ewing and Ewing-like sarcoma patients, elraglusib+cyclophosphamide/topotecan

Cn1cc(C2=C(c3coc4ccc(F)cc34)C(=O)NC2=O)c2cc3c(cc21)OCO3 [9-ING-41, 3-(5-Fluorobenzofuran-3-yl)-4-(5-methyl-5H-[1,3]dioxolo[4,5-f]indol-7-yl) pyrrole-2,5-dione]
patients with stable disease (refractory malignancies; 6 patients (2 NBL, 1 aRMS, 1 EP, 1 OS, 1 GBM)): 26.1%
patients remaining on study treatment ≥3 months (refractory malignancies; 8 pts (2 NBL, 2 EP, 1 OS, 1 aRMS, 1 ES, 1 PB)): 35%
OS (overall survival) (refractory malignancies; Adrenocortical carcinoma patient, 9-ING-41 15 mg/kg + Cyclophosphamide/topotecan): 102 days
OS (overall survival) (refractory malignancies; Alveolar rhabdomyosarcoma patient, 9-ING-41 9.3 mg/kg + Irinotecan): 375 days
OS (overall survival) (refractory malignancies; CIC rearranged sarcoma patient, 9-ING-41 15 mg/kg + Cyclophosphamide/topotecan): 47 days
Best Response (refractory malignancies; [7]): PD (progressive disease)
Status Last FUP (refractory malignancies; [7]): Dead
Survival (refractory malignancies; [7]): 48 days
OS (overall survival) (refractory malignancies; Embryonal CNS tumor NOS patient, 9-ING-41 9.3 mg/kg + Irinotecan): 262 days
Best Response (refractory malignancies; [8]): PD (progressive disease)
Status Last FUP (refractory malignancies; [8]): Alive
Survival (refractory malignancies; [8]): 182 days
Best Response (refractory malignancies; [9]): SD (stable disease)
Status Last FUP (refractory malignancies; [9]): Dead
Survival (refractory malignancies; [9]): 440 days
Best Response (refractory malignancies; [10]): SD (stable disease)
Status Last FUP (refractory malignancies; [10]): Dead
Survival (refractory malignancies; [10]): 757 days and 526 days
Notes (response) (refractory malignancies; [11]): pCR-
OS (overall survival) (refractory malignancies; [11]): 379 days
OS (overall survival) (refractory malignancies; Ewing sarcoma patient, 9-ING-41 12.4 mg/kg + Cyclophosphamide/topotecan): 176 days
Status Last FUP (refractory malignancies; [12]): Alive
Survival (refractory malignancies; [12]): 804 days
Best Response (refractory malignancies; [13]): SD (stable disease)
Status Last FUP (refractory malignancies; [13]): Dead
Survival (refractory malignancies; [13]): 177 days
Best Response (refractory malignancies; [14]): SD (stable disease); also recorded: PR (partial response)
Status Last FUP (refractory malignancies; [14]): Dead and Alive
OS (overall survival) (refractory malignancies; Glioblastoma multiforme (GBM) patient, 9-ING-41 12.4 mg/kg + Cyclophosphamide/topotecan): 406 days
Best Response (refractory malignancies; [15]): SD (stable disease)
Status Last FUP (refractory malignancies; [15]): Alive
Survival (refractory malignancies; [15]): 407 days
OS (overall survival) (refractory malignancies; High grade astrocytoma patient, 9-ING-41 15 mg/kg, combo treatment N/A): 97 days
OS (overall survival) (refractory malignancies; Neuroblastoma patient, 9-ING-41 9.3 mg/kg + Irinotecan, 9.3 mg/kg): 245 days and 389 days
Notes (response) (refractory malignancies; [16]): pCR-
OS (overall survival) (refractory malignancies; [16]): 308 days
OS (overall survival) (refractory malignancies; Neuroblastoma patient, 9-ING-41 15 mg/kg + Cyclophosphamide/topotecan): 113 days
OS (overall survival) (refractory malignancies; Neuroblastoma patient, 9-ING-41 15 mg/kg + Irinotecan): 68 days
Best Response (refractory malignancies; [17]): SD (stable disease); also recorded: PD (progressive disease)
Status Last FUP (refractory malignancies; [17]): Dead
Survival (refractory malignancies; [17]): 245 days and 389 days
Status Last FUP (refractory malignancies; [18]): Dead
Survival (refractory malignancies; [18]): 438 days
Best Response (refractory malignancies; [19]): SD (stable disease)
Status Last FUP (refractory malignancies; [19]): Dead
Survival (refractory malignancies; [19]): 360 days
Best Response (refractory malignancies; [20]): SD (stable disease)
Status Last FUP (refractory malignancies; [20]): Alive
Survival (refractory malignancies; [20]): 440 days
OS (overall survival) (refractory malignancies; Osteosarcoma patient, 9-ING-41 9.3 mg/kg + Cyclophosphamide/topotecan): 389 days
Best Response (refractory malignancies; [21]): SD (stable disease)
Status Last FUP (refractory malignancies; [21]): Alive
Survival (refractory malignancies; [21]): 481 days
OS (overall survival) (refractory malignancies; Progressive ependymoma patient, 9-ING-41 9.3 mg/kg + Cyclophosphamide/topotecan): 407 days
OS (overall survival) (refractory malignancies; Recurrent ependymoma patient, 9-ING-41 15 mg/kg + Irinotecan): 403 days
OS (overall survival) (refractory malignancies; Rhabdomyosarcoma patient, 9-ING-41 15 mg/kg + Cyclophosphamide/topotecan): 78 days
OS (overall survival) (refractory malignancies; Rhabdomyosarcoma patient, 9-ING-41 15 mg/kg + Irinotecan): 19 days
Best Response (refractory malignancies; [22]): SD (stable disease)
Status Last FUP (refractory malignancies; [22]): Dead
Survival (refractory malignancies; [22]): 375 days
tolerability (refractory malignancies; heavily pre-treated pediatric patient population): well tolerated
reduction of tumor at the 1st tumor assessment (partial remission) (refractory malignancies; individual Ewing patients, elraglusib+cyclophosphamide/topotecan): 52% and 96%
tumor response at 1st tumor assessment (refractory malignancies; one metastatic, refractory Ewing patient, elraglusib+cyclophosphamide/topotecan, 2 months of treatment): complete remission
radiographic and pathologic response (refractory malignancies; one patient with recurrent Ewing's sarcoma, after 3 cycles of elraglusib/cyclophosphamide/topotecan): complete response
time in remission with no evidence of disease after termination of treatment (refractory malignancies; same Ewing patient, stopped all treatments after 4 months): ~2 years
patients continuing on treatment (refractory malignancies; [23]): three of the seven
patients remaining alive (refractory malignancies; [23]): Four of the seven
highest currently tolerated dose level [1]: tolerated dose level in the 1801 adult study (15 mg/kg).
growth factor TGF-α [2]: homogenous increase
IL-6 ([3]; Saos-2 (only this cancer cell line), 0.5 μM 9-ING-41 for 24 hours): increase
growth factor TGF-α ([3]; Saos-2, 0.5 μM 9-ING-41 for 24 hours): homogenous increase
AUC(0-inf) [4]: 45700 ng·h/mL
Cmax [4]: 6410 ng/mL
half-life [4]: 18.9 ± 6.3 h
AUC(0-t) ([4]; read-out: AUC(0-24)): 42000 ng·h/mL
PD-L1 expression, western blot [5]: increase
cPARP (apoptotic marker), western blot [5]: increase
PD-L1 expression, western blot [6]: increase
cPARP (apoptotic marker), western blot [6]: increase
IL-8 chemokine (NK-92 NK cells): increase
soluble TRAIL (TRAIL/TNFSF10) (NK-92 NK cells): increase
CXCL11 (TALL-104 T-cells): increase
IL-18 (TALL-104 T-cells): increased level

Source: patent publication US20260232634A1, “TREATMENT OF PEDIATRIC CANCERS USING GYLCOGEN SYNTHASE KINASE FORM B INHIBITORS” (Actuate Therapeutics Inc., priority 2023, published 2026)
